Measured values: patent publication US6423334B1, “Composition and method for enhancing transport across gastrointestinal tract cell layers” (priority 1997, dated 2002)

Tests used:
[1] = Flux of [3H]-TRH across Caco-2 monolayers; format: in vitro ADME, human; conditions: human, Caco-2
Procedure: (§1) The cell monolayers were incubated as given in Example 4 above.
(§2) A further 2 hour transepithelial transport study was carried out as above for [^3H]-TRH (0.12 nM) except that excess TRH (cold, 4.4 mM; Bachem, UK) was also administered apically. […] No significant difference between TRH Papp values at low concentrations (0.05-0.1 nM) and high TRH concentrations (4.4 mM) was observed providing evidence of passive TRH absorption across the monolayer.
(§3) Statistically significant differences existed between Babassu TEER results and those of the other oils (2 mM) at each 30 minute interval except between Babassu oil and Almond oil at the T=30 sampling. No significant differences in TEER was observed between Almond oil, Palm Kernel oil and Maize oil. The average 30% reduction in TEER observed for Almond, Palm Kernel and Maize oils at 2 mM during the 2 hour flux was not evident in the presence of Babassu oil (2 mM).

Caco-2 monolayers [2] = assay: Flux of [3H]-TRH across Caco-2 monolayers; format: in vitro ADME, human
Procedure: as §1, §2, §3

Caco-2 monolayers [3] = assay: TEER of Caco-2 monolayers during flux experiments; format: cell-based, human; conditions: for overall decrease in resistance (TEER) of control cells / decrease in TEER: 2 hour flux; for overall decrease in resistance (TEER) of control cells: labelled drug alone, no enhancer
Procedure: Part a: Caco-2 monolayers (passage 20-40; 20-30 days post seeding on filters) were treated apically for 20-30 min with the 8mM and 40 mM Babassu oil in Hanks+25 mM Hepes. The oil was removed and replaced with Hanks containing 100 IU/ml Kraeber low molecular weight heparin. […] Transepithelial electrical resistance (TEER) measurements were taken at regular intervals for 20 min and subsequently every 30 min after the oil was removed with the Evohmeter (WPI) and chopsticks as shown in Table 4. The results are expressed as mean±S.E. (statistical differences examined using the two sided independent t-test).
as §2, §3

in vitro = conditions: human
Procedure: (§4) The cell monolayers were incubated with prewarmed Hanks balanced salt solution (HBSS modified by adding 1 g glucose/I—final concentration 11 mM glucose and 24 mM Hepes, pH 7.4) at 37° C. for 30 minutes, adding 1 ml to apical and 2 ml to the basolateral side. At T=0, apical HBSS was replaced with 1 ml HBSS containing the mannitol transport solution and the plates were placed in a 37° C. incubator on an orbital shaker. Samples were taken from the apical side at T=0 and T=120 min and from the basolateral side every 30 min. The resulting samples were measured by liquid scintillation spectrophotometry using a Wallac 1409.
(§5) An experiment similar to the above transepithelial transport of mannitol experiment was conducted except that cytochalasin D (1 μg/ml), a potent tight junction opener, was added apically and basolaterally at time zero instead of the Babassu oil.
(§6) Following the procedures of the 2 hour flux experiments of Example 4 above, [^3H]-mannitol (0.04 nM) was added apically to Caco-2 monolayers in the presence of 0.1 mM, 5.0 mM, and 10 mM Almond Oil, 0.1 mM, 2.0 mM, 2.5 mM, 5.0 mM and 10 mM Palm Kernel oil as well as 0.1 mM, 1 mM and 2 mM Maize oil.

Caco-2 monolayers [4] = conditions: human, Caco-2, 2 h, 0.04 nM, pH 7.4
Procedure: as §4, §5, §6

SMILES	Papp A→B at 2 h, 0.12 nM [1]	Papp A→B at 2 h, 0.2 nM [1]	TRH transported across the Caco-2 monolayer (Caco-2 monolayers [2]; Caco-2)	overall decrease in resistance (TEER) of control cells (Caco-2 monolayers [3])	reduction in TEER (Caco-2 monolayers [3]; [3H]-TRH 0.12 nM in the presence and absence of excess cold TRH (4.4 mM), 2 hours)	apparent permeability coefficient (Papp) of TRH (Caco-2 monolayers [2]; in the presence of cytochalasin D 1 μg/ml)	decrease in TEER (Caco-2 monolayers [3]; Cytochalasin D with [3H]-TRH)	decrease in TEER (Caco-2 monolayers [3]; Cytochalasin D with [3H]-mannitol)	reduction in TEER (Caco-2 monolayers [3]; cytochalasin D 1 μg/ml apically and basolaterally, mannitol flux)	initial reduction in TEER (Caco-2 monolayers [3]; cytochalasin D 1 μg/ml, TRH flux, first hour)	additional reduction in TEER (Caco-2 monolayers [3]; cytochalasin D 1 μg/ml, TRH flux, remaining hour)	Papp A→B at 2 h, 0.04 nM (in vitro; Caco-2, pH 7.4, Papp)	Papp A→B at 2 h, 0.04 nM (in vitro; Caco-2, pH 7.4, apparent permeability coefficient (Papp) of mannitol)	% Transport per hour (Caco-2 monolayers [4])
NC(=O)[C@@H]1CCCN1C(=O)[C@H](Cc1cnc[nH]1)NC(=O)[C@@H]1CCC(=O)N1 [TRH, Thyrotropin releasing hormone]	0.53 ×10⁻⁶ cm/s	0.72 ± 0.025 ×10⁻⁶ cm/s	0.2%	29.2%	approximately 20%									
C=C1[C@@H](C)[C@H]2[C@H](Cc3ccccc3)NC(=O)[C@]23[C@H](OC(C)=O)/C=C/[C@@](C)(O)C(=O)[C@@H](C)C/C=C/[C@H]3[C@@H]1O [cytochalasin D]						5.7 ×10⁻⁶ cm/s	50%	59%	60%	40%	22%			
OC[C@@H](O)[C@@H](O)[C@H](O)[C@H](O)CO [mannitol, mannitol, D -[1-^3H (n)]]				12.8%								0.79 ± 0.03 ×10⁻⁶ cm/s	0.79 ×10⁻⁶ cm/s	0.28%
